Measurements from patent US20260335472A1, “MULTIFUNCTIONAL COMPOUND CORE FOR ACTIVE AGENTS AND USES THEREOF” (THE UNIVERSITY OF NORTH CAROLINA AT CHAPEL HILL, priority 2023, published 2026).
Values belong to the compound of their own block, whether it stands above or below them.

What was measured:
[1] = test system: PC3-PSMA model; assay: PET scan imaging, tumor uptake in rodents; format: in vivo, mouse
[2] = PET scan imaging, salivary gland uptake in non-human primate; format: in vivo; conditions: 24 hours post injection, relative to 64Cu-PSMA-617, FIG. 1 panel B
Experimental: (§1) Indeed, SGs uptake of ^64Cu-NOTA-UNC-PSMA2 is only 1/10th of ^64Cu-PSMA-617 at 24 h post-injection in the NHP study (FIG. 1, panel B).

[3] = test system: tumor; assay: Imaging, tumor uptake in non-human primate models; format: in vivo; conditions: non-human primate (NHP) models, times higher than PSMA-617
Experimental: as §1

[4] = SPECT/CT imaging, gland uptake in a human subject; format: in vivo
[5] = SPECT/CT imaging, SG uptake in rodent models; format: in vivo
[6] = test system: tumor; assay: PET scan imaging, tumor uptake of bifunctional (Sar cage) core compound; format: in vivo; conditions: mouse, FIG. 5
[7] = test system: tumor; assay: PET scan imaging of 68Ga-PSMA-617 tumor uptake; format: in vivo; conditions: rodent models, PET scan image of a mouse, FIG. 2 panel A

- tumor uptake (in words) ([1]; mouse, PC3-PSMA model, PET scan image, FIG. 1 panel A): high and persistent tumor uptake
- tumor uptake compared to PSMA-617 ([1]; rodent models, times higher than PSMA-617): 2-3 times
- SG uptake relative to 64Cu-PSMA-617 [2]: 1/10
- tumor uptake compared to PSMA-617 [3]: 2-3 times
SMILES: O=C(O)CC[C@H](NC(=O)N[C@@H](CCCCNC(=O)[C@H](Cc1ccc2ccccc2c1)NC(=O)C1CCC(CNC(=O)CSCCS(=O)(=O)CCOCCn2c(=O)n(CCOCCS(=O)(=O)CCSCC(=O)NC[C@H]3CC[C@H](C(=O)N[C@@H](Cc4ccc5ccccc5c4)C(=O)NCCCC[C@H](NC(=O)N[C@@H](CCC(=O)O)C(=O)O)C(=O)O)CC3)c(=O)n(CCOCCS(=O)(=O)CCSCC(=O)Nc3ccc(CC4CN(CC(=O)O)CCN(CC(=O)O)CCN4CC(=O)O)cc3)c2=O)CC1)C(=O)O)C(=O)O (stereo partly shown) [^64Cu-NOTA-UNC-PSMA2, metal not drawn]
- distribution (in words) ([1]; 24 and 48 h post injection, FIG. 1 panel A): persistent as only the tumor demonstrated prominent compound uptake

SMILES: O=C(O)CC[C@H](NC(=O)N[C@@H](CCCCNC(=O)[C@H](Cc1ccc2ccccc2c1)NC(=O)[C@H]1CC[C@H](CNC(=O)CN2CCN(CC(=O)O)CCN(CC(=O)O)CCN(CC(=O)O)CC2)CC1)C(=O)O)C(=O)O.[Lu+3] [^177Lu-PSMA-617]
- SG uptake (in words) ([4]; SPECT/CT imaging): prominent SG uptake
- glands uptake (in words) ([4]; SPECT/CT, 24 hours post injection, FIG. 2 panel B): high glands uptake
- SG uptake (in words) [5]: prominent SG uptake

SMILES: N#CC1CCCN1C(=O)CNC(=O)c1ccnc2ccc(OCCCN3CCN(C(=O)CCOCCOCCNC(=O)NC45CNCCNCC(NC(=O)NCCOCCOCCC(=O)N6CCN(CCCOc7ccc8nccc(C(=O)NCC(=O)N9CCCC9C#N)c8c7)CC6)(CNCCNC4)CNCCNC5)CC3)cc12 (stereo not shown)
- uptake into a tumor (in words) [6]: Uptake of this compound into a tumor

SMILES: O=C(O)CC[C@H](NC(=O)N[C@@H](CCCCNC(=O)[C@H](Cc1ccc2ccccc2c1)NC(=O)[C@H]1CC[C@H](CNC(=O)CN2CCN(CC(=O)O)CCN(CC(=O)O)CCN(CC(=O)O)CC2)CC1)C(=O)O)C(=O)O.[Ga+3] [^68Ga-PSMA-617]
- tumor uptake profile (in words) [7]: clean tumor uptake profile
